According to paper PMC5589090 (PLoS Medicine, 2017):
Like-named read-outs stand apart in the source and are kept apart here.

Tests used:
[1] = tested on: THP1; conditions: 0.3 µM daily for 2-3 days; cited from earlier work
[2] = set-up: method as in Investigators Brochure; conditions: THU co-administration, mice; ref Investigators Brochure; cited from earlier work
[3] = cited from earlier work
[4] = tested on: immortal phenotype; set-up: method as in ref 93 (a number printed in a supplementary file, which may have a reference list of its own: not looked up in the article's list); conditions: cited from earlier work
[5] = Blood chemistries and biomarkers of hemolysis, thrombophilia, inflammation (LDH, total bilirubin, D-dimer, CRP); assay type: in vivo, human; conditions: cohorts 4 and 5
Description: Blood counts, blood chemistries, total bilirubin, HbF, LDH, and D-dimer levels were standard clinical pathology tests through the CLIA-certified Clinical Pathology Laboratory at the University of Illinois at Chicago.

[6] = Decitabine plasma pharmacokinetics by LCMS/MS after first oral THU-decitabine dose; assay type: in vivo, human; conditions: for Cmax: first dose
Procedure: Blood samples were drawn over a period of less than 1 minute into tubes pre-loaded with heparin and THU 10 μg/ml (to prevent in vitro metabolism by CDA) and immediately transferred onto ice. Samples were then centrifuged as soon as possible at 600 g for 5 minutes at 4°C. […] Pharmacokinetic data were analyzed using non-compartmental methods or a 2-compartment model with instantaneous/intravenous input using the R package PKLMfit. […] The AUClast (the area under the curve from the time of dosing to the last measurable concentration) was calculated by the linear trapezoidal method.
Samples will be processed immediately by centrifugation at 3000 × g for 5 min in a refrigerated centrifuge. […] To increase stability, tetrahydrouridine (THU), a cytidine deaminase inhibitor, will be added to the plasma supernatant at a final concentration of 100 μM immediately after centrifugation. Plasma (300 μL) will be then aliquoted into two tubes with the remaining plasma in a third tube. The plasma will be immediately frozen at −80 °C until analysis. All samples will be sent to Jiang Wang, PhASR at The Ohio State University for processing (appendix B).
The chromatographic separation will be performed on a 250 mm × 2.0 mm i.d., 4.0 μm, C18 column (YMC Co. Ltd., Kyoto, Japan) and a 20 mm × 2.1 mm i.d., 3.5 μm, C18 guard column (Waters Xterra RP18, Waters Corporation, Milford, MA, USA) kept at room temperature. The mobile phase used for chromatographic separation will be composed of 2 mM ammonium acetate containing 0.1% formic acid and methanol, and is delivered using a gradient flow. The mass spectrometer is equipped with an electrospray interface, which will be operated in a positive mode, and controlled by the completely validated Masslynx software (Waters Corporation, Milford, MA, USA). […] The analytical method is currently under development and validation according to the ICH Guideline (ICH Harmonized Tripartite Guideline. Validation of Analytical Procedures: Text and Methodology. Q2(R1). Incorporated in November, 2005) in the laboratory of Dr. Lyubimov (Toxicology Research Laboratory, TRL). Method specificity, linearity, range, accuracy, precision and detection limit will be established and validated. In addition, short-term, long-term and freezing/towing stability will be determined. All sample collection, handling and analysis procedures will be performed according to GLP and GCP requirements. All data and the report will be audited by the Quality Assurance Officer at TRL.
PK analysis: PK analysis will be performed using the Winnonlin software (version 5.0.1, Pharsight NC) and will include the determination of maximum plasma concentration (Cmax), time to maximum plasma concentration (Tmax), area under the plasma concentration-versus-time curve from time zero to last measurable plasma concentration (AUC0-t). The terminal rate constant ( [picture] z) will be determined from the slope of the terminal phase of the plasma concentration-time curve using uniform weight. The terminal half-life (T1/2) will be calculated as 0.693 divided by [picture] z. Area under the concentration-time curve (AUC) will be calculated using the log/linear trapezoidal rule. The AUC will be extrapolated to infinity (AUC0– [picture] ) by using the equation, AUC0– [picture] = AUC0–t + Clast/ [picture] z, where Clast will be the final quantifiable concentration.

[7] = read-out: decitabine Cmax; 15 mg/m^2 IV over 3 hours Q8 hrs D1-3 or 20 mg/m^2 IV over 1 hour D1-5; ref 105;108;109; cited from earlier work
[8] = set-up: method as in ref 16 (a number printed in a supplementary file, which may have a reference list of its own: not looked up in the article's list); conditions: decitabine 0.1-0.2mg/kg 1-2X/week, four SCD patients; cited from earlier work
[9] = tested on: DNMT1; conditions: cited from earlier work
[10] = tested on: cancers; set-up: method as in ref 94 (a number printed in a supplementary file, which may have a reference list of its own: not looked up in the article's list); conditions: cited from earlier work
[11] = tested on: 8 melanoma cell lines; set-up: method as in ref 21 (a number printed in a supplementary file, which may have a reference list of its own: not looked up in the article's list); conditions: two daily treatments 0.2 µM; cited from earlier work
[12] = tested on: malignant tumor formation; set-up: method as in Berger MR. Proc Am Ass Cancer Res 1997;38:599; conditions: 6mg/kg of decitabine; controls 30-40%; ref Berger MR. Proc Am Ass Cancer Res 1997;38:599; cited from earlier work
[13] = human starting dose 0.01 mg/kg
Procedure: To ensure safety in case of this possibility, decitabine pharmacokinetics are measured after single dose oral administration of decitabine and THU.

[14] = cited from earlier work; remark: listed apart in the source

SMILES: Nc1ncn([C@H]2C[C@H](O)[C@@H](CO)O2)c(=O)n1 [decitabine, 5-aza-2’-deoxycytidine]
- DNMT1 protein expression [1]: profoundly decreased DNMT1 protein expression
- phosphorylation of H2AX [1]: did not increase phosphorylation of H2AX
- viability [1]: did not decrease the viability
- increase of AUClast compared to oral decitabine alone [2]: approximately 9 fold
- stability in plasma ([3]; hydrolysis and cytidine deaminase): very unstable in plasma
- hydrolysis in aqueous solution every 7 hours ([3]; pH 7.4, 4 °C): approximately 2.5%
- immortal phenotype [4]: reversed the immortal phenotype
- serum LDH ([5]; biomarker of hemolysis): improved
- total bilirubin ([5]; biomarker of hemolysis): improved
- CRP levels ([5]; biomarker of inflammation): improved
- D-dimer ([5]; biomarker of thrombophilia): improved
- Cmax ([6]; human, plasma, po, decitabine plasma concentration, Cmax, oral decitabine 0.08 mg/kg (cohort 4) 60 min after oral THU 10 mg/kg): 0.009 to 0.021 µM
- Cmax ([6]; human, plasma, po, decitabine plasma concentration, Cmax, oral decitabine […] (cohort 5) 60 min after oral THU 10 mg/kg, at 2 hours): ~0.05 µM
- decitabine detected in the plasma ([6]; lowest oral decitabine dose level 0.01 mg/kg after oral THU 10 mg/kg): detected
- decitabine Tmax ([6]; oral decitabine 60 minutes after THU 10 mg/kg): hours
- Cmax ([6]; read-out: decitabine plasma concentration, Cmax, oral decitabine […] (cohort 5) 60 min after oral THU 10 mg/kg, at 2 hours): 0.039 to 0.054 µM
- Cmax [7]: ≤ 2.7 µM
- Hemoglobin increases within 2-4 weeks [8]: > 1.5 g/dL
- maximum hemoglobin increases [8]: 3.5 to 5 g/dL
- concentrations that deplete DNMT1 without measurable DNA damage or cytotoxicity ([9]; in vitro): 0.2 to 0.5 µM
- threshold concentration for depleting DNMT1 ([9]; ref 15;17-22;48): ~ 0.005 µM
- half-life in vitro ([9]; ref 27;101): 5 to 16 h
- decrease of the incidence of cancers [10]: 30%
- DNA damage (H2AX, CHK1, p53 phosphorylation, BAX, GADD45, comet assay) [11]: did not cause DNA damage
- rate of malignant tumor formation [12]: 74-94%
- expected Cmax lower than Cmax […] with reversible toxicity in murine toxicology studies [13]: 3,920 fold
- tolerability ([14]; 124 MDS subjects): well tolerated
- major cytogenetic responses ([14]; MDS subjects with abnormal cytogenetics, 40-50 mg/m^2 3X/wk, courses every 6-8 weeks): 31%
- unusual patterns of cytogenetic instabilities ([14]; MDS subjects): no unusual patterns of cytogenetic instabilities were found
- treatment related deaths ([14]; MDS, 45 mg/m^2/day for 3 days every 6 weeks, ref Saba et al, 2004): no treatment related deaths
- secondary malignancies ([14]; over 1,000 patients with hematologic or solid tumors): no reports of secondary malignancies
- side effects of chronic metronomic very-low-dose decitabine ([14]; patients with myeloid malignancies, treated for years): without significant side effects
